Experimental data: ChEMBL document CHEMBL4342426, “Structure-activity relationship of 4-azaindole-2-piperidine derivatives as agents against Trypanosoma cruzi” (Bioorg Med Chem Lett, 2020)

What was measured:
[1] = test system: Trypanosoma brucei rhodesiense; assay: microbe, parasite or virus in culture; conditions: STIB900, 72 h
Description: Antiprotozoal activity against Trypanosoma brucei rhodesiense STIB900 trypomastigotes incubated for 72 hrs by resazurin dye based fluorimetric analysis

[2] = cells; conditions: Homo sapiens, MRC-5 SV2, 72 h
Description: (§1) Cytotoxicity against human MRC5 SV2 cells assessed as reduction in cell viability incubated for 3 days by fluorimetry

[3] = test system: Trypanosoma cruzi; assay: microbe, parasite or virus in culture; conditions: Tulahuen CL2, MRC-5 SV2, 168 h
Description: Antitrypanosomal activity against Trypanosoma cruzi Tulahuen CL2 amastigotes infected in human MRC5 SV2 cells incubated for 7 days by chlorophenol red beta-D-galactopyranoside substrate based spectrophotometric assay

[4] = in vitro; conditions: mouse, peritoneal macrophages
Description: (§2) Cytotoxicity against mouse peritoneal Macrophage cells assessed as reduction in cell viability incubated for 3 days by fluorimetry

[5] = test system: Trypanosoma brucei; assay: microbe, parasite or virus in culture; conditions: Squib 427, 72 h
Description: Antitrypanosomal activity against Trypanosoma brucei Squib 427 assessed as reduction in parasite growth incubated for 72 hrs by resazurin dye based fluorimetric analysis

[6] = test system: Leishmania infantum; assay: microbe, parasite or virus in culture; conditions: for IC50: MHOM/MA(BE)/67/ITMAP263, 120 h; for IC90: MHOM/MA(BE)/67/ITMAP263, in Mus musculus, 120 h
Description: Antileishmanial activity against amastigote stage of Leishmania infantum MHOM/MA(BE)/67/ITMAP263 infected in mouse peritoneal macrophage assessed as parasite growth inhibition incubated for 5 days by Giemsa staining based assay

[7] = in vitro; conditions: human, MRC5 SV2 cells
Description: as §1

[8] = test system: Macrophage; assay: cells; conditions: Mus musculus, 72 h
Description: as §2

[9] = physchem; conditions: buffer, pH 7.4
Description: Lipophilicity, logD of compound at pH 7.4 by HPLC analysis

[10] = in vitro; conditions: human, liver microsomes
Description: Metabolic stability in human liver microsomes assessed as intrinsic clearance at 0.5 uM incubated for 30 mins by LC-MS/MS analysis

[11] = in vitro; conditions: mouse, liver microsomes
Description: Metabolic stability in mouse liver microsomes assessed as intrinsic clearance at 0.5 uM incubated for 30 mins by LC-MS/MS analysis

[12] = in vitro; conditions: PAMPA
Description: Effective permeability of compound by PAMPA assay

IC50 [1] [µM]	IC90 [1] [µM]	IC90 at 72 h [4] [µM]	IC50 [5] [µM]	IC90 [5] [µM]	IC50 [6] [µM]	IC90 [6] [µM]	IC90 at 72 h [7] [µM]	logD [9]	CLint scaled at 0.5 h, 0.5 µM [10] [mL/min/kg]	microsomal CLint at 0.5 h, 0.5 µM [10] [µL/min/mg]	CLint scaled at 0.5 h, 0.5 µM [11] [mL/min/kg]	microsomal CLint at 0.5 h, 0.5 µM [11] [µL/min/mg]	Papp [12] [×10⁻⁶ cm/s]	SMILES	IC50 [2] [µM]	IC50 [3] [µM]	IC90 [3] [µM]	IC50 [8] [µM]	CC50 at 72 h [7] [µM]
64	64	64	64	64	64	64	64							CC(C)(C)OC(=O)N1CCCC(O)(c2cc3ncccc3[nH]2)C1 (stereo not drawn)	64	64	64	64	
64	64	64	64	64	64	64	64	1.24	< 31.3	< 23				O=C(c1cncnc1)N1CCCC(c2cc3ncccc3[nH]2)C1 (stereo not drawn)	64	64	64	64	
64	64	64	64	64	64	64	64							O=C(NCCc1nc2ccccc2[nH]1)c1ccccc1	64	64	64	64	
64	64	64	64	64	64	64	64							CC(=O)N1C=C(c2cc3ncccc3[nH]2)CCC1	64	64	64	64	
														CC(=O)O[C@H]1C(=O)[C@@]2(C)[C@H]([C@H](OC(=O)c3ccccc3)[C@]3(O)C[C@H](OC(=O)[C@H](O)[C@@H](NC(=O)c4ccccc4)c4ccccc4)C(C)=C1C3(C)C)[C@]1(OC(C)=O)CO[C@@H]1C[C@@H]2O [PACLITAXEL]					< 0.01
64	64	64	64	64	64	64	64	2.13	52	31	956	193		O=C(c1ccccc1)N1CCC(O)(c2cc3ncccc3[nH]2)CC1	64	64	64	64	
64	64	64	64	64	64	64	64	1.75					2.72	O=C(CCc1nc2ncccc2[nH]1)Nc1ccccc1	64	64	64	64	
														O=C(Cn1ccnc1[N+](=O)[O-])NCc1ccccc1 [BENZNIDAZOLE]		2 to 5			
64	64	64	64	64	64	64	64	1.63					3.35 to 3.44	CCN(CCc1nc2ncccc2[nH]1)C(=O)c1ccccc1	64	64	64	64	
64	64	64	64	64	64	64	64	3.24	≥ 25	< 23	> 963	301	6.13	O=C(CCc1nc2ncc(Cl)cc2[nH]1)Nc1cccc(F)c1	64	64	64	64	
64	64	64	64	64	64	64	64	2.13	143	94.4	1920	434		OC1(c2cc3ncccc3[nH]2)CCN(Cc2ccccc2)CC1	64	64	64	64	
64	64	64	64	64	64	64	64	1.85	< 25	< 23	523	164	2.33	O=C(c1ccccn1)N1CCCC(c2cc3ncccc3[nH]2)C1 (stereo not drawn)	64	64	64	64	
64	64	64	64	64	64	64	64	2.81	< 33.3	< 23	516	120	5.97	O=C(CCc1nc2ncc(Cl)cc2[nH]1)Nc1ccccc1	64	64	64	64	
64	64	64	64	64	64	64	64	2.49	< 31.7	< 23	< 95	< 23	8.77	O=C(NCCc1nc2ncc(Cl)cc2[nH]1)c1ccccc1	64	64	64	64	
64	64	59.7	64	64	45.6	60.5	64							O=S(=O)(c1ccccc1)N1CC=C(c2cc3ncccc3[nH]2)CC1	64	64	64	45.3	
64	64	64	64	64	64	64	64	4.15	201	61.9	13200	1370	4.86	O=C(c1ccccc1)N1CC=C(c2cc3ccccc3[nH]2)CC1	64	41.9	64	64	
64	64	59.7	64	64	39.2	59	64	3.5	50.5 to 54.2	32.9	310 to 555	68.3 to 114	5.51	N#Cc1cnc2cc(C3CCCN(C(=O)c4cc(C(F)(F)F)no4)C3)[nH]c2c1 (stereo not drawn)	64	64	64	45.3	
														CC[C@]1(O)C[C@@H]2CN(CCc3c([nH]c4ccccc34)[C@@](C(=O)OC)(c3cc4c(cc3OC)N(C)[C@H]3[C@@](O)(C(=O)OC)[C@H](OC(C)=O)[C@]5(CC)C=CCN6CC[C@]43[C@@H]65)C2)C1 [VINBLASTINE]					< 0.01
64	64	64	64	64	64	64	64							CCCC(=O)N1CCCC(O)(c2cc3ncccc3[nH]2)C1 (stereo not drawn)	64	64	64	64	
64	64	64	64	64	64	64	64	2.46	40.7	24.1	4900	980		CC(C)c1cc(C(=O)N2CCC(O)(c3cc4ncccc4[nH]3)CC2)on1	64	45.9	64	64	
59.4	64	14.9	64	64	11.4	15.1	64	3.31	223	160	2050	498	15.7	CN(CC(O)c1cc2ncccc2n1S(=O)(=O)c1ccccc1)C(=O)c1ccccc1 (stereo not drawn)	64	64	64	11.3	
